Assay results from patent publication US20090130759A1, “Culture Medium Containing Kinase Inhibitor, and Use Thereof” (The University Court of the University of Edinburgh, priority 2005, published 2009).

Assays:
[1] = tested on: mouse ES cells; experiment: Self-renewal culture of mouse ES cells with GSK3 inhibitor and gp130 signalling (LIF); type: cell-based; settings: for promotion of self renewal of ES cells: GSK3 inhibitor used in ES cell culture
Procedure: (§1) Mouse and human ES cells were grown under various conditions, using N2B27 medium unless otherwise stated and in the presence or absence of the GSK-3β inhibitors CHIR99021, AR-AO144-18, SB216763 and SB415286.
N2 100× stock solution. For 10 ml: mix 1 ml insulin (final concentration 2.5 mg/ml) with 1 ml apo-transferrin (final concentration 10 mg/ml), 0.67 ml BSA (final concentration 5 mg/ml), 33 μl progesterone (final concentration […]), 100 μl putrescine (final concentration 1.6 mg/ml), 10 μl sodium selenite (final concentration 3 μM) and 7.187 ml DMEM/F12. Store at 4° C. and use within 1 month.
DMEM/F12-N2 medium: to 100 ml of DMEM/F12, add 1 ml of N2 100× stock solution. The final concentration of each component of N2 in the DMEM/F12 medium is: insulin, 25 μg/ml; apo-transferrin, 100 μg/ml; progesterone, 6 ng/ml; putrescine, 16 μg/ml; sodium selenite, 30 nM; BSA 50 μg/ml. Store at 4° C. and use within 1 month.
Neurolbasal/B27 medium: to 100 ml of Neurolbasal™ Medium, add 2 ml of B27 and 0.5-1 ml of 200 mM L-glutamine. Store at 4° C. and use within 1 month.
(§2) N2B27 medium: mix DMEM/F12-N2 medium with Neurolbasal/B27 medium in the ratio of 1:1. Add β-mercaptoethanol to a final concentration of 0.1 mM from the 0.1M stock. Store at 4° C. and use within 1 month.

[2] = tested on: human ES cells; experiment: Human ES cell self-renewal in N2B27 medium on feeder cells; type: cell-based
Procedure: as §2
a) N2B27 medium with bFGF (10 ng/ml) and grown on feeder cells (HS27 human foreskin fibroblasts); and b) the same as a) but adding BMP4 (5 ng/ml) and LIF (10 ng/ml) as well as bFGF.

[3] = tested on: GSK3; settings: cited from earlier work
[4] = tested on: mouse and human ES cells; experiment: Attempt to repeat reported effects of GSK3 inhibitor on ES cells (Sato et al); type: cell-based; settings: attempted repeat of published results
From the text: Sato N, et al, Nat. Med. 2004, January 10(1) pp 55-63 describe the effects of a Glycogen Synthase Kinase 3 (GSK3) inhibitor, 6-bromoindirubin-3′-oxime, on mouse and human ES cells in serum containing medium. These effects, however, were observed only over a very short time frame, too short for firm conclusions to be drawn, and the influence of unknown factors in the undefined media used in that study may be significant.
Instead, ES cells died or differentiated in GSK-3β inhibitors alone.

[5] = tested on: human ES cells; experiment: Feeder-free, conditioned medium-free culture of human ES cells after forced expression of an Eras gene; type: cell-based
Procedure: as §1, §2
a) in N2B27 medium with bFGF, grown on laminin, fibronectin, vitronectin or matrigel; b) the same as a) but adding BMP4 (5 ng/ml) as well as bFGF; and c) the same as a) but adding a GSK-3β inhibitor as well as bFGF.

[6] = N2B27, feeder cells, BMP4 (5 ng/ml) and LIF (10 ng/ml) added as well as bFGF

With `Cn1cc(C2=C(c3ccc(Cl)cc3Cl)C(=O)NC2=O)c2ccccc21` [SB216763] the “promotion of self renewal of ES cells” value [1] was “promote self renewal of ES cells”.

For LIF: gp130 receptor binding cytokine, the “sustaining human ES cell self-renewal” value [2, 6] was “could sustain human ES cell self-renewal”.

For `Cc1c[nH]c(-c2cnc(NCCNc3ccc(C#N)cn3)nc2-c2ccc(Cl)cc2Cl)n1` [CHIR 99021], the “specificity for GSK3” value [3] is given as “specific for GSK3”, the “overall result of use in ES cell culture” value [1] is given as “Good results” and the “promotion of self renewal of ES cells” value [1] is given as “promote self renewal of ES cells”. The “E14.1A ES cells weaned off feeder cells (FIG. 1)” value ([1]; LIF+CHIR99021 with serum) was “weaned off feeder cells and grown” and the “self renewal of mouse ES cells” value ([1]; combination with LIF in a serum-free, fully defined medium) was “improved self renewal of mouse ES cells with very little differentiation”.

For CHIR 98014, the “specificity for GSK3” value [3] is listed as “specific for GSK3”, the “overall result of use in ES cell culture” value [1] is listed as “Good results” and the “promotion of self renewal of ES cells” value [1] is listed as “promote self renewal of ES cells”.

With `O=C1Nc2cc(Br)ccc2/C1=C1/Nc2ccccc2/C1=N\O` [6-bromoindirubin-3′-oxime] the “effects on mouse and human ES cells versus those described by Sato et al” value [4] was “effects opposite to those described”.

With `COc1ccc(CNC(=O)Nc2ncc([N+](=O)[O-])s2)cc1` [AR-AO144-18] the “promotion of self renewal of ES cells” value [1] was “promote self renewal of ES cells”.

In the case of bFGF: FGF receptor agonist, the “sustaining human ES cell self-renewal” value ([2]; N2B27 medium with bFGF (10 ng/ml), on HS27 human foreskin fibroblast feeder cells) is reported as “could sustain human ES cell self-renewal” and the “growth of human ES cells in feeder-free, conditioned medium-free conditions” value ([5]; N2B27 with bFGF, on laminin, fibronectin, vitronectin or matrigel) is reported as “grew in feeder-free and conditioned medium-free conditions”.

For `O=C1NC(=O)C(c2ccccc2[N+](=O)[O-])=C1Nc1ccc(O)c(Cl)c1` [SB415286], the “promotion of self renewal of ES cells” value [1] was “promote self renewal of ES cells”.

B1: BMP4: agonist of the TGF-β superfamily (protein, UniProt P12644 293-408, looked up)
Bone morphogenetic protein 4: SPKHHSQRARKKNKNCRRHSLYVDFSDVGWNDWIVAPPGYQAFYCHGDCPFPLADHLNSTNHAIVQTLVNSVNSSIPKACCVPTELSAISMLYLDEYDKVVLKNYQEMVVEGCGCR
In the case of B1, the “sustaining human ES cell self-renewal” value [2, 6] is reported as “could sustain human ES cell self-renewal” and the “growth of human ES cells in feeder-free, conditioned medium-free conditions” value ([5]; N2B27 with BMP4 (5 ng/ml) as well as bFGF) is reported as “grew in feeder-free and conditioned medium-free conditions”.
